Measurements reported in patent US20250243160A1, “INDOLE DERIVATIVES FOR TARGETING AUTOPHAGY” (Automera PTE. LTD, priority 2024, published 2025).

Key:
[1] = biological target: Recombinant p62 protein (Homo sapiens, UniProt Q13501); assay: Surface plasmon resonance (SPR) compound binding to p62; details: 15° C
Experimental: Recombinant p62 protein was buffer exchanged into Biacore SPR running buffer (Cytiva 100671) using the Slide-A-Lyzer Mini Dialysis system 7K MWCO (Thermo Fisher Scientific, Cat no. 69560). The final protein concentration was determined using the Nanodrop One spectrophotometer (Thermo Fisher Scientific, cat no. ND-ONE-W), with calibration for the dialysis buffer.
The prepared protein was diluted in sodium acetate buffer (NaAc, pH 5.5, Cytiva) to concentrations ranging from approximately 0.25-40 μg/mL. Post-immobilization, the protein required approximately 16 hours of equilibration in running buffer supplemented with 1% DMSO at 15° C. to ensure adequate surface equilibration and protein reorganization.
All SPR experiments were conducted at a constant temperature of 15° C. The SPR chip surface was activated using EDC/NHS for a contact time of 6-10 min at a flow rate of 10 μL/min. This was followed by protein immobilization for 2100 seconds and ethanolamine capping for 420 seconds, both at the same flow rate. Immediately after immobilization, the NH2-REEE peptide was analyzed in Single Cycle Kinetics mode (SCK) to verify surface activity, ensuring it binds the sample with the published affinity (˜20 μM by SPR).
For general compound binding studies, experiments were performed at 15° C. using a running buffer composed of 10 mM HEPES, 150 mM NaCl, 1 mM DTT, 0.05% Tween 20, and 1% DMSO at pH 7.4. The test compound was initially prepared at a 20 mM concentration in DMSO and subsequently titrated in 2-fold dilutions. For each assay, 2 μL of the compound was mixed with 198 μL of the running buffer, and the mixture was thoroughly pipetted approximately 15 times for homogenization.
A series of blank injections (0 μM concentration) were included for double referencing, with at least 8 or 16 per plate depending on the format. Typical injection parameters were 120 seconds for association and 180 seconds for dissociation at a flow rate of […]. A four-point solvent correction was prepared with DMSO concentrations ranging from 2% to 0.5% in the buffer. Post each compound injection, the system's needles were washed with 50% DMSO.
Analysis of the SPR data was conducted using the Cytiva Evaluation software. The binding levels at the late time-point of each interaction were corrected for reference, then normalized to percentage bound values to account for variations in immobilization levels, protein molecular weight, and compound molecular weight.
Compound binding studies were carried out according to experimental procedures above and SPR % occupancy was determined and summarized in Table 7.

[2] = test system: LC3 protein; assay: LC3 lipidation (LC3-II/LC3-I) assay by Western blot in HeLa cells; assay type: cell-based; set-up: key: ++: >2-fold change in LC3-II/LC3-I relative to DMSO control; +: <2-fold change in LC3-II/LC3-I relative to DMSO control; −: no change in LC3-II/LC3-I relative to DMSO control; details: 24 hours treatment, relative to vehicle control (DMSO)
Experimental: (§1) HeLa cells were seeded in 6-well plates (700,000 cells) and allowed to adhere overnight. Media was replaced one hour before administering either vehicle (DMSO) or test compounds. After 24 hours of treatment, the media was discarded, and cells were rinsed once with ice-cold 1×PBS before detached from plates with ice-cold RIPA Lysis and Extraction Buffer (Thermo Fisher Scientific) which was supplemented with protease and phosphatase inhibitors. The resulting cell suspensions were transferred to pre-chilled microcentrifuge tubes, incubated on ice for 20 min with intermittent mixing and then centrifuged at 12,000 rpm for 20 min at 4° C. The supernatants were then aspirated slowly and transferred into new tubes kept on ice. The protein concentration in the samples was determined using BCA kit (Thermo Fisher Scientific) as per manufacturer's instructions.
(§2) For the p62 oligomerization and LC3 lipidation assays, cell lysates were prepared using RIPA buffer supplemented with 2% SDS and benzonase (Sigma). The lysates were then combined with 4× Laemmli protein sample buffer (Bio-Rad), heated at 70° C. for 10 min and subjected to a brief centrifugation of 10-15 seconds.
(§3) For p62 oligomerization and LC3 lipidation assays, lysates containing 30 μg of protein and for BRD4 and FKBP12(F36V) degradation assays, lysates containing 20 μg of protein, were loaded slowly into the wells of 4-20% gradient Tris-glycine gels (Bio-Rad). The gels were run at 100V until completion and transferred onto PVDF membranes. Membranes were blocked using 5% milk in TBS-Tween (0.1%) buffer at room temperature for 1 hour. The membranes were incubated with primary antibody in 5% milk-TBST with shaking, overnight at 4° C. The primary antibodies used were: p62 (Novus Biologicals 2C11, H00008878-MO1), LC3A/B (Cell Signalling Technology D3U4C, 12741S), FKBP12 (Abcam ab24373), BRD4 (Cell Signalling Technology E2A7X, 13440S), GAPDH (Cell Signalling Technology D4C6R, 97166S), and β-Actin (Proteintech 66009-1-Ig). Following primary antibody incubation, membranes were washed thrice with TBST 10 min before and after incubation with secondary-HRP conjugated antibody in 5% milk-TBST for 1 hour at room temperature. The secondary antibodies used were: Anti-Mouse IgG HRP Conjugate (Promega W4021B) and Anti-Rabbit IgG HRP Conjugate (Promega W4011). For the p62 oligomerization assay, the total protein levels were assessed using Ponceau staining (Thermo Fisher Scientific) of PVDF membrane as per recommendation by manufacturer's guidelines.
(§4) Imaging was acquired using SuperSignal™ West Pico PLUS Chemiluminescent Substrate (Thermo Fisher Scientific) with iBright Invitrogen FL100 imaging system. Band signal intensity, reflective of protein concentrations, were quantified using Invitrogen™ iBright™ Analysis and Image J software.
HeLa cells were treated with compounds for 24 hours to evaluate the effect of these compounds on LC3-II/LC3-I levels, a measure of autophagy activation. The changes in levels of LC3-I, LC3-II and […] (loading control) were assessed by Western blotting, as described in experimental procedures. The fold increase of LC3-II/LC3-I levels induced by compound treatment relative to vehicle control (DMSO) was determined and summarized in Table 9. Specifically, FIGS. 3A-C show Western blot images and their corresponding quantification showing the lipidation levels of LC3 protein (LC3-II/LC3-I) by 24 hours compound treatments at listed concentrations, relative to vehicle control (DMSO) in HeLa cells.

[3] = biological target: T1, p62 oligomers (Homo sapiens, UniProt Q13501); assay: p62 oligomerization assay by Western blot in HeLa cells; assay type: cell-based; details: 24 hours treatment, relative to vehicle control (DMSO)
T1 construct: endogenous in cells; host or cells: HeLa
T1 sequence (Q13501 whole entry): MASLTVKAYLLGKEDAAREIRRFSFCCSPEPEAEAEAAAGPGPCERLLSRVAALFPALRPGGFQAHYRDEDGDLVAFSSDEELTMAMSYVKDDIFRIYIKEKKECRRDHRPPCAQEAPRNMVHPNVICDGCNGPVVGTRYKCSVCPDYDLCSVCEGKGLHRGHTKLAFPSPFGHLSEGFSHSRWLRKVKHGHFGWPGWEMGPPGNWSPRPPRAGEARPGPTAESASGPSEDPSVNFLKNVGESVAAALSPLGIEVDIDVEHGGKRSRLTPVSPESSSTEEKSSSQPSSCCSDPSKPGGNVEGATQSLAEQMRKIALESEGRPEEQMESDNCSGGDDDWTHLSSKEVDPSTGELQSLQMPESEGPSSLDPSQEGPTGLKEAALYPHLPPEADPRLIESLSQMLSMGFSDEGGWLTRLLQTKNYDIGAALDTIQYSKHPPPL
Experimental: as §1, §2, §3, §4
HeLa cells were treated with compounds for 24 hours to evaluate the effect of these compounds on p62 oligomerisation activity. The resulting changes in levels of p62 oligomers were assessed by Western blotting, as described in experimental procedures. The fold change of p62 oligomer levels induced by compound treatment relative to vehicle control (DMSO) was determined and summarized in Table 8. Specifically, FIGS. 2A-C show Western blot images and their corresponding quantification showing the levels of high molecular weight (100-200 kDa) p62 oligomers by 24 hours compound treatments at listed concentrations, relative to vehicle control (DMSO) in HeLa cells. Protein loading consistencies was assessed by Ponceau staining (not shown).

Sequence of Recombinant p62 protein (Q13501 whole entry, species assumed): as the sequence (Q13501 whole entry) above

Row | receptor occupancy at 100 µM [1] | Structure (SMILES) | LC3 lipidation (fold increase of LC3-II/LC3-I levels) [2] | p62 oligomerization (fold change of p62 oligomer levels) [3]
1 | > 70% | OCCNCc1cc(F)cc2c1ccn2Cc1ccccc1 [Compound 31] | + (<2-fold change in LC3-II/LC3-I relative to DMSO control) | ++ (>2-fold change relative to DMSO control)
2 | > 70% | OCCNCc1ccc(Cl)c2c1ccn2Cc1ccccc1 [Compound 35] | ++ (>2-fold change in LC3-II/LC3-I relative to DMSO control) | ++ (>2-fold change relative to DMSO control)
3 | 30 to 70% | Cc1cn(Cc2ccccc2)c2cccc(CNCCO)c12 [Compound 37, 2-(((1-benzyl-3-methyl-1H-indol-4-yl)methyl)amino)ethan-1-ol] | + (<2-fold change in LC3-II/LC3-I relative to DMSO control) | ++ (>2-fold change relative to DMSO control)
4 | 30 to 70% | Cc1cn(Cc2ccc(F)cc2)c2cccc(CNCCO)c12 [Compound 48] | ++ (>2-fold change in LC3-II/LC3-I relative to DMSO control) | ++ (>2-fold change relative to DMSO control)

Second part, the compound before the results:

Row | Structure (SMILES) | receptor occupancy at 100 µM [1] | LC3 lipidation (fold increase of LC3-II/LC3-I levels) [2] | p62 oligomerization (fold change of p62 oligomer levels) [3]
5 | OCCNCc1cccc2c1ccn2Cc1ccc(F)cc1 [Compound 10] | > 70% | + (<2-fold change in LC3-II/LC3-I relative to DMSO control) | ++ (>2-fold change relative to DMSO control)
6 | OCCNCc1cccc2c1ccn2Cc1ccc(Cl)cc1 [Compound 11] | > 70% | ++ (>2-fold change in LC3-II/LC3-I relative to DMSO control) | ++ (>2-fold change relative to DMSO control)
7 | OCCNCc1cccc2c1ccn2Cc1cccc(Cl)c1 [Compound 13] | 30 to 70% | + (<2-fold change in LC3-II/LC3-I relative to DMSO control) | ++ (>2-fold change relative to DMSO control)
8 | OCCNCc1cccc2c1ccn2Cc1c[nH]cn1 [Compound 21, 2-(((1-((1H-imidazol-4-yl)methyl)-1H-indol-4-yl)methyl)amino)ethan-1-ol] | 30 to 70% | − | + (<2-fold change relative to DMSO control)
9 | OCCNCc1cccc2c1ccn2CCC1CCNCC1 [Compound 26] | 30 to 70% | + (<2-fold change in LC3-II/LC3-I relative to DMSO control) | ++ (>2-fold change relative to DMSO control)
10 | CC(C)(C)OC(=O)N1Cc2ccc(Cn3ccc4c(CNCCO)cccc43)cc2C1 [Compound 27] | > 70% | + (<2-fold change in LC3-II/LC3-I relative to DMSO control) | ++ (>2-fold change relative to DMSO control)
11 | Cc1cn(CC2CCOCC2)c2cccc(CNCCO)c12 [Compound 49] | 30 to 70% | − | + (<2-fold change relative to DMSO control)
